Assay results from patent US6340784B1, “Method for selective increase of the anticarcinogenic glucosinolates in Brassica sp” (Plant Bioscience Limited, priority 1998, dated 2002).
Where two headings read alike, the source gives them in different places. Marks after values point to notes of the source that are not given here.

Tests used:
[1] = system: QR in murine hepatoma Hepa 1c1c7 cells; experiment: Induction of QR (quinone reductase, phase II enzyme) activity in Hepa 1c1c7 cells; assay type: cell-based; set-up: induction of QR (fold): unit of the concentration uncertain; settings: for CD: pure compound
Protocol: Extracts from the freeze-dried material were assessed for their induction activity in murine hepatoma Hepa 1c1c7 cells. Approximately 0.1 g of milled freeze-dried material was moistened by addition of water (2 ml), homogenised and left at room temperature for 1 hr with occasional mixing. Hot 70% (v/v) methanol (3 ml) was added and mixed thoroughly prior to incubation for 15 min at +70° C. The homogenates were cooled to room temperature and centrifuged for 5 min at 3000 r.p.m. Supernatants were removed and the volume decreased in a vacuum centrifuge to approximately one fifth of the initial volume. The resulting concentrates were filtered through sterile non-pyrogenic filters ([…]) and stored at −70° C. prior to testing. The concentrations of each extract were expressed as dry weight of original material to each ml of culture medium.
Induction was measured according to published methods (Tawfiq, N., Heaney, R. K., Plumb, J. A., Fenwick, G. R., Musk, S. R. R., & Williamson, G. (1995) Carcinogenesis 16, 1191-1194., Prochaska, H. J., & Santamaria, A. B. (1988) Anal. Biochem. 169, 328-336., Williamson, G., Plumb, G. W., Uda, Y., Price, K. R., & Rhodes, M. J. C. (1996) Carcinogenesis 17, 2385-2387.) with the following modifications. Each sample was analysed at eight concentrations using four replicates for each concentration. b-Napthoflavone was used as a positive control at a concentration of 0.2 mM. […] Each cultivar/hybrid was extracted on three occasions and analysed separately.

[2] = system: QR in murine hepatoma Hepa 1c1c7 cells; settings: literature value, See Zhang (2), cited from earlier work
[3] = assuming 100% conversion of glucosinolate to isothiocyanate, from plant extracts

## C[S+]([O-])CCCN=C=S (stereo not drawn) [3-methylsulfinylpropyl isothiocyanate]
[1]; [3]
  apparent CD value: 0.5 mM
[2]
  CD value for synthetic isothiocyanate: 2.4 µM

## CSCCCN=C=S [3-methylthiopropyl isothiocyanate]
[1]; [3]
  apparent CD value: 1.6 mM
[2]
  CD value for synthetic isothiocyanate: 3.5 µM

## C[S+]([O-])CCCCN=C=S (stereo not drawn) [Synthetic sulforaphane, 4-methylsulfinylbutyl isothiocyanate]
[1]; at 1.6 (unit uncertain)
  induction of QR (fold): three-fold
[1]; extracts or compound, cultivar extracts 0.001 mg/ml to 0.125 mg/ml
  ability to induce QR activity (in words): potent inducer
[1]
  CD: 0.4 mM
[1]; synthetic compound, positive control
  apparent CD value: 0.0003 mM
[2]
  CD value for synthetic isothiocyanate: 0.4-0.8§ μM
[2]; listed as 4-methylsulfinylbutyl
  CD value for synthetic isothiocyanate: 0.4 to 0.8 µM

## O=c1cc(-c2ccccc2)oc2ccc3ccccc3c12 [b-Napthoflavone]
[1]; positive control at 0.2 (unit uncertain)
  induction of QR (fold): three-fold
[1]
  CD: 0.02 mM
